Reference: US20080003569A1, “Method for the Detection of Intracellular Parameters With Luminescent Protein Probes for the Screening of Molecules Capable of Altering Said Parameters” (priority 2004, published 2008)

Tests used:
[1] = test system: endogenous receptor for ATP P2Y; assay: mt-AEQ photon emission, CHO cells, endogenous ATP receptor; type: cell-based; conditions: ATP 100 μM
Protocol: (§2) 36 hours after the transfection, the cells, cultivated on flasks for cellular cultures (75 cm^2), were detached from the bottom by trypsinization. The cellular suspension was then transferred to a Falcon tube (of 15 or 50 ml) and subjected to centrifugation at 1200 rpm in a cell centrifuge at 20° C. and finally the cellular precipitate was re-suspended in KRB/Ca^2+ (Krebs-Ringer modified buffer: 125 mM NaCl, 5 mM KCl, 1 mM CaCl2, 1 mM Na3PO4, 1 mM MgSO4, 5.5 mM glucose, 20 mM HEPES, pH 7.4, 37° C.).
(§3) The prosthetic group celentherazine was added at a final concentration of 5 μM to the suspension of engineered cells expressing the mt-AEQ probe.
(§4) 50 μl of suspension containing transfected cells (corresponding to about 100,000 cells) were planted in each well of the plate. The cells were left to adhere for a time varying from 1 to 2 hours keeping them in the dark, due to the photo-instability of celentherazine.
(§5) At the end of the incubation time, the various molecules to be tested were added to each well and the plate with the treated cells was then put in direct contact with a photo-multiplier which measures the emission of photons on the part of aequorin.

[2] = test system: PKC-aequorin (PKC-AEQ) probe: PKC beta, delta, epsilon, zeta; assay: Translocation of PKC-aequorin probe to the plasmatic membrane, HeLa cells, photon emission; type: cell-based
From the text: In the specific example, the results presented relate to the use of the PKC beta-aequorin (PCKβ-AEQ), PKC delta-aequorin (PCKδ-AEQ), PKC epsilon-aequorin (PCKε-AEQ), PKC zeta-aequorin (PCKζ-AEQ) probes.
These probes were obtained by inserting, in a eukaryotic expression vector (pcDNA3; 5.4 kb), the sequence encoding the various PKC isoforms condensed in frame with the sequence encoding aequorin described above.
The cells cultivated on cellular culture flasks (75 cm^2) were transfected with a vector containing the chimeric probe produced, using the most suitable transfection techniques for the cellular line in question. As the HeLa stabilized cellular line was used as experimental model, the calcium phosphate technique was adopted as transfection method which guarantees a high percentage of positive cells for this cellular line.
(§1) 36 hours after transfection, the cells contained in the flask were detached from the bottom by trypsinization.
The prosthetic group celentherazine was added to the suspension of cells expressing the PKC-aequorin probe at a final concentration of 5 μM. […]

[3] = molecular target: endogenous receptor for histamine Hi (Homo sapiens, UniProt P35367); conditions: HeLa mt-AEQ cells, histamine 100 μM
Protocol: (§6) The cellular lines thus engineered were then both transfected with the vector containing the mt-AEQ probe by means of the calcium phosphate technique.
as §2, §3, §4
(§7) At the end of the incubation time, the various molecules to be tested were added to each well and the plate with the treated cells was then put in direct contact with a photo-multiplier which measures the emission of photons on the part of aequorin. […]

[4] = test system: beta adrenergic receptor; assay: mt-AEQ photon emission, control HeLa cells expressing beta adrenergic receptor; type: cell-based; conditions: control HeLa cells expressing a beta adrenergic receptor, stimulated with isoproterenol
Protocol: as §2, §3, §4, §5
HeLa cells expressing a beta adrenergic receptor and stimulated with isoproterenol for inducing the stimulation of said receptor, were used as control (dotted line).

[5] = test system: beta/alpha adrenergic receptor (chimeric); assay: mt-AEQ photon emission, HeLa cells expressing chimeric beta/alpha adrenergic receptor; type: cell-based; conditions: HeLa mt-AEQ cells with chimeric receptor, isoproterenol 100 μM; from less than 20 before stimulation
Protocol: as §6, §2, §3, §4, §7

[6] = test system: PKC beta-aequorin (PKCβ-AEQ) probe; assay: Translocation of PKC beta-aequorin probe under hyperglycaemia conditions, HUVEC cells; type: cell-based; conditions: 10 mM glucose plus metformin 20 μM
From the text: A beta-aequorin PKC probe, already described in example 1, was used, with which HUVEC endothelial cells were transfected. The cells cultivated on cellular culture flasks (75 cm^2) were transfected with a vector containing the chimeric probe produced, using the most suitable transfection techniques for the cellular line in question. Endothelial cells of stabilized umbilical cord veins, called HUVEC, were used as the experimental model, which were transfected with the PKC beta-aequorin probe, using lipofectamine which guarantees a high percentage of positive cells for this cellular line. 36 hours after transfection, the cells contained in the flask were detached from the bottom by trypsinization. […] The prosthetic group celentherazine at a final concentration of 5 μM was added to the cell suspension expressing the PKC beta-aequorin probe. […] The example provided was carried out on three parallel batches of cells: a) HUVEC cells expressing the PKC beta-aequorin (PKCβ-AEQ) probe, maintained under control conditions (absence of glucose) (dotted line). b) HUVEC cells expressing the PKC beta-aequorin (PKCβ-AEQ) probe, maintained under hyperglycaemia conditions (10 mM of glucose) (dark, thick line). c) HUVEC cells expressing the PKC beta-aequorin (PKCβ-AEQ) probe, maintained under hyperglycaemia conditions (10 mM of glucose) treated with a well-known anti-diabetic agent, metformin (20 μM) (dark, thin line).

[7] = test system: p66shc-aequorin (p66shc-AEQ) probe; assay: Translocation of p66shc-aequorin probe to the plasmatic membrane, A431 cells; type: cell-based
From the text: This probe was obtained by inserting, in a eukaryotic expression vector (pcDNA3; 5.4 kb), the sequence encoding the p66shc protein condensed in frame with the sequence encoding aequorin.
The cells cultivated on cellular culture flasks (75 cm^2) were transfected with a vector containing the chimeric probe produced, using the most suitable transfection techniques for the cellular line in question. The stabilized transfected cellular line A431 was adopted as experimental model, using the “Effectene reagent” procedure (Qiagen, Germany), which guarantees a high percentage of positive cells for this cellular line.
24 hours after the transfection, the cells were maintained in a DMEM culture medium, without serum.
as §1
The prosthetic group celentherazine was added to the suspension of cells expressing the p66shc-aequorin probe, at a final concentration of 5 μM. […]

[8] = test system: ORL1/alpha adrenergic receptor (chimeric); assay: mt-AEQ photon emission, CHO cells expressing chimeric ORL1/alpha adrenergic receptor; type: cell-based; conditions: CHO mt-AEQ cells with chimeric receptor, nociceptine 1 μM; from less than 20 before stimulation
Protocol: as §6, §2, §3, §4, §7

[9] = from less than 20 before stimulation

endogenous receptor for histamine Hi, sequence (P35367 whole entry): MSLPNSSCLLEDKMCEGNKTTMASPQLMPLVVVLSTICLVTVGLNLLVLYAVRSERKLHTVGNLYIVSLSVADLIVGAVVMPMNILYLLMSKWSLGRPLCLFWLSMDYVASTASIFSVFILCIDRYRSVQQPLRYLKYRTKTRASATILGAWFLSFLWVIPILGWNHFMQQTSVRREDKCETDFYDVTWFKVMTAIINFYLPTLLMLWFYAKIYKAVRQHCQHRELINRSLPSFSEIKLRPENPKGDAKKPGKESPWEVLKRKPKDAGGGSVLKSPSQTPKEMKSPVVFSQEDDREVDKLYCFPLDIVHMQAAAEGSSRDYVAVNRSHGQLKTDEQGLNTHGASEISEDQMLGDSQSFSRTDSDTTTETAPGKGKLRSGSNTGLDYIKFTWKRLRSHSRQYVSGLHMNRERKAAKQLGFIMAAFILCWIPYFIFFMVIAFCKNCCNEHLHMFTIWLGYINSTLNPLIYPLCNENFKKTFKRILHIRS

In the case of `Nc1ncnc2c1ncn2[C@@H]1O[C@H](COP(=O)(O)OP(=O)(O)OP(=O)(O)O)[C@@H](O)[C@H]1O` [ATP], the “concentration of calcium in the mitochondrial matrix” value [1] is reported as “considerable and transient increase” and the “emission of photons on the part of aequorin” value (from here on “emission … of aequorin”) [1, 9] is reported as “over 80,000 photons emitted per second”.

With `CCCCCCCCCCCCCC(=O)O[C@@H]1[C@@H](C)[C@@]2(O)[C@@H](C=C(CO)C[C@]3(O)C(=O)C(C)=C[C@@H]23)[C@@H]2C(C)(C)[C@]12OC(C)=O` [PMA] the emission of photons ([2]; HeLa PKC-AEQ cells, PMA 1 μM, after addition of external calcium) was > 100,000 cps and the emission of photons ([2]; HeLa cells, absence of external calcium) was “lower than 100 cps”.

In the case of `NCCc1c[nH]cn1` [histamine, Histamine], the “concentration of calcium in the mitochondrial matrix” value [3] is reported as “considerable and transient increase” and the “emission … of aequorin” value [3, 9] is reported as “over 80,000 photons emitted per second”.

With `CC(C)NCC(O)c1ccc(O)c(O)c1` (centres unmarked) [isoproterenol, Isoproterenol] the increase in cps [4] was “does not induce any increase in cps” and the “emission … of aequorin” value [5] was “over 80,000 photons emitted per second”.

With `CN(C)C(=N)N=C(N)N` [metformin] the emission of photons ([6]; HUVEC PKCβ-AEQ cells, after addition of external calcium) was “lower than 40,000 cps”, the “inhibition of the PKCβ-AEQ probe translocation (grade)” value ([6]; HUVEC) was “good inhibition” and the “translocation induced by glucose under hyperglycaemia conditions” value ([6]; HUVEC) was “inhibits the translocation”.

With “EGF: epidermic growth factor, maximal activator of p66shc translocation” the emission of photons ([7]; A431 cells, absence of external calcium) was “lower than 100 cps” and the emission of photons ([7]; A431 p66shc-AEQ cells, EGF 100 ng/ml, after addition of external calcium) was > 100,000 cps.

In the case of Nociceptine, the “emission … of aequorin” value [8] is reported as “over 80,000 photons emitted per second”.
